According to patent US20250122181A1, “BENZIMIDAZOLES AS MODULATORS OF IL-17” (Janssen Pharmaceutica NV, priority 2021, published 2025):

Columns and labels:
[1] = biological target: T1, IL-17A(FLAG-Tagged): IL-17RA(His-Tagged) (Homo sapiens, UniProt Q16552, K93Q); experiment: IL-17A(FLAG-Tagged): IL-17RA(His-Tagged) Binding Disruption Eu-HTRF Assay, Protocol 1; conditions: Protocol 1, FLAG tagged IL-17A 2.5 nM; simple average if tested more than once
Summary of the method: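 IC50 came from a one-site competition fit of the acceptor/donor (665/620 nm) HTRF ratio. His-tagged IL-17RA, Eu-anti-FLAG and D2-anti-His were added after a 1 h rt compound preincubation with FLAG-tagged IL-17A dimer in PBS/0.01% Triton X-100, followed by 2 h at rt before reading.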

[2] = biological target: T1, IL-17A(FLAG-Tagged): IL-17RA(His-Tagged); experiment: IL-17A(FLAG-Tagged): IL-17RA(His-Tagged) Binding Disruption Eu-HTRF Assay, Protocol 2; conditions: Protocol 2, FLAG tagged IL-17A 1 nM; simple average if tested more than once
Source text: An antibody directed against the FLAG tag of IL-17A (SEQ ID NO: 1) is labeled with the HTRF donor chromophore (Europium-cryptate). IL-17A is present as a dimer that is “locked into” this quaternary structure due to the formation of loop-spanning […] disulfide bridges. The construct of IL-17RA used in the assay excludes the […] portion of the receptor and is fused to a C-terminal 10×His tag (SEQ ID NO:2). An antibody directed against the His tag of the IL-17RA chimera is labeled with the HTRF acceptor chromophore (“D2”). The fluorescence-resonance energy transfer (FRET) depends on the vicinity of the donor chromophore to the acceptor, and interruption of the binding between the IL-17A and IL-17RA causes the reduction/loss of FRET. Therefore, this assay allows to evaluate the compound effect on the binding IL-17A and IL-17RA by monitoring the fluorescence intensity of donor vs acceptor. The assay was run using either Protocol 1 or Protocol 2 as described below.
Protocol 2. 40 nl of 2-fold serial diluted compound solution for total 22 dilution points is added into each well of a 1536-well, white, low-volume, non-binding plate (Greiner #782904), then 2 μl of FLAG tagged IL-17A at 2× final concentration (1 nM) in solution of PBS+0.01% Triton-X100 is added to each well. The assay plate is briefly centrifuged then incubated for 1 h at rt. A mixed solution is prepared containing 2×5 nM 10HIS×IL-17RA, 2×2.5 nM Eu-anti-FLAG (CISBIO), 2×5 nM D2-anti-HIS (CISBIO) in PBS+0.01% Triton-X100+200 mM Potassium Fluoride (Sigma 60238) and 2 μl of mix is added to each well of the assay plate. The plate is briefly centrifuged then incubated for 2 h at rt. The HTRF intensities at the wavelength of donor (615 nm) and acceptor (665 nm) are measured using BMG Pherastar. The ratio between intensities at two wavelengths is calculated and plotted against the compound concentration and the data is fitted to a one-site competition model to yield IC50 of the compound.

[3] = tested on: IL-17A-induced G-CSF production in human normal keratinocyte (NHK); experiment: NHK Assay: IL-17A-induced G-CSF production in human normal keratinocyte; format: cell-based; conditions: Homo sapiens, Keratinocyte, 24 h, IL-17A 5 ng/mL, simple average if tested more than once
Summary of the method: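 Stimulus rhIL-17A 5 ng/mL final, premixed 1 h rt with compound; adult NHK, 5% FBS, 0.2% DMSO. Viability by CellTiter-Glo vs DMSO.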

[4] = tested on: patients with moderate-to-severe HS; conditions: seven of nine patients with moderate-to-severe HS, open-label pilot-trial; cited from earlier work

T1 sequence (Q16552 with tags, fused parts or gaps K93Q): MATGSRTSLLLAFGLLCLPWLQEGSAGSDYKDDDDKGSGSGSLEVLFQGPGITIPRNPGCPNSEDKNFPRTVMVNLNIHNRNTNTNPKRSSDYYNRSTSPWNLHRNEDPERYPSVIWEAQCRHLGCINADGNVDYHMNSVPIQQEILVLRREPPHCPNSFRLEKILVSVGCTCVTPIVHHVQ

Molecule | IC50 [1] [nM] | IC50 [2] [nM] | IC50 [3] [nM] | patients achieved HiSCR [4] [%]
CC(C)n1nccc1C(=O)NC(c1nc2nc([C@@H](C3CC3)N3CC(F)(F)CNC3=O)ccc2[nH]1)[C@@H](C)O[C@H](C)C(F)(F)F (single isomer, unassigned) [Example 75, N-((1R*,2R)-1-(5-((R)-Cyclopropyl(5,5-difluoro-2-oxotetrahydropyrimidin-1(2H)-yl)methyl)-1H-imidazo[4,5-b]pyridin-2-yl)-2-(((R)-1,1,1-trifluoropropan-2-yl)oxy)propyl)-1-isopropyl-1H-pyrazole-5-carboxamide] | > 100 | > 100 | < 50 | 
Cc1nonc1C(=O)N[C@@H](COC(C)(C)C(F)(F)F)c1nc2cc([C@@H](C3CC3)N3C[C@@H](C(C)C)NC3=O)ccc2[nH]1 [Example 83, N—((R)-1-(5-((R)-Cyclopropyl((R)-4-isopropyl-2-oxoimidazolidin-1-yl)methyl)-1H-benzo[d]imidazol-2-yl)-2-((1,1,1-trifluoro-2-methylpropan-2-yl)oxy)ethyl)-4-methyl-1,2,5-oxadiazole-3-carboxamide] | < 50 | < 50 | < 50 | 
secukinumab |  |  |  | 78
